The supplement of paper PMC11061612

Assays:
Assay in all cases: combination Emax (second highest fraction inhibited in the dose matrix, 72 h); higher = more inhibition; extreme values may be limits of the assay
[1] = test system: VA-ES-BJ (Other Solid Carcinomas)
In short: (§1)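 After 24 hours at 37°C and 5% CO2 in 1536-well plates, cells in DMEM/F12 or RPMI plus 10% FBS received two-drug dose matrices for 72 hours. Viability came from CellTiter-Glo 2.0 luminescence and was scaled as inhibition, anchored at 0 by vehicle wells and at 1 by blank wells. Combination Emax is taken as the second-highest inhibition in the matrix, and Bliss excess as the observed combination effect less EA + EB − EA·EB, with EA and EB the single-agent effects.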

[2] = test system: EW-24 (Ewing's Sarcoma)
In short: as §1

[3] = test system: MIA-PaCa-2 (Pancreatic Carcinoma)
In short: as §1

[4] = test system: EoL-1-cell (Acute Myeloid Leukemia)
In short: as §1

[5] = test system: BT-549 (Breast Carcinoma)
In short: as §1

[6] = test system: Ca9-22 (Head and Neck Carcinoma)
In short: as §1

[7] = test system: D-263MG (Glioblastoma)
In short: as §1

[8] = test system: NB69 (Neuroblastoma)
In short: as §1

[9] = test system: SW13 (Other Solid Carcinomas)
In short: as §1

[10] = test system: YH-13 (Glioblastoma)
In short: as §1

[11] = test system: SCC-15 (Oral Cavity Carcinoma)
In short: as §1

[12] = test system: HOP-62 (Lung Adenocarcinoma)
In short: as §1

[13] = test system: KARPAS-299 (T-Cell Non-Hodgkin's Lymphoma)
In short: as §1

[14] = test system: PANC-04-03 (Pancreatic Carcinoma)
In short: as §1

[15] = test system: KMOE-2 (Acute Myeloid Leukemia)
In short: as §1

[16] = test system: PWR-1E (Non-Cancerous)
In short: as §1

[17] = test system: RF-48 (B-Cell Non-Hodgkin's Lymphoma)
In short: as §1

[18] = test system: EFM-19 (Breast Carcinoma)
In short: as §1

[19] = test system: NEC8 (Other Solid Carcinomas)
In short: as §1

[20] = test system: C-4-I (Cervical Carcinoma)
In short: as §1

Compound	combination Emax [1]	combination Emax [2]	combination Emax [3]	combination Emax [4]	combination Emax [5]	combination Emax [6]	combination Emax [7]	combination Emax [8]	combination Emax [9]	combination Emax [10]	combination Emax [11]	combination Emax [12]	combination Emax [13]	combination Emax [14]	combination Emax [15]	combination Emax [16]	combination Emax [17]	combination Emax [18]	combination Emax [19]	combination Emax [20]
CC1(C)CCC(CN2CCN(c3ccc(C(=O)NS(=O)(=O)c4ccc(NCC5CCOCC5)c([N+](=O)[O-])c4)c(Oc4cnc5[nH]ccc5c4)c3)CC2)=C(c2ccc(Cl)cc2)C1 [Venetoclax] + C[C@@H](Nc1cc(F)cc(F)c1)c1cc(C(=O)N(C)C)cc2c(=O)cc(N3CCOCC3)oc12 [AZD8186] (first compound max 1 µM, 7x7, partner max 3 µM)	0.149	0.26	0.153	1	0.258	0.471	0.142	0.998	0.128	0.441	0.166	0.264	0.829	0.149	0.323	0.173	0.345	0.412	0.0292	0.398
Cc1c2c(nn1C)CSCc1cc(n(C)n1)CSc1cc(c3ccccc3c1)OCCCc1c(C(=O)O)n(C)c3c-2c(Cl)ccc13 [AZD5991] + CCN(CCO)CCCOc1ccc2c(Nc3cc(CC(=O)Nc4cccc(F)c4)[nH]n3)ncnc2c1 [AZD2811] (first compound max 1 µM, 7x7, partner max 1 µM)	0.395	0.383	0.66	1	0.575	0.465	0.994	0.878	0.964	0.579	0.307	0.446	0.987	0.237	0.759	0.939	0.262	0.783	0.33	1
Cc1c2c(nn1C)CSCc1cc(n(C)n1)CSc1cc(c3ccccc3c1)OCCCc1c(C(=O)O)n(C)c3c-2c(Cl)ccc13 [AZD5991] + Cn1cnc2c(F)c(Nc3ccc(Br)cc3Cl)c(C(=O)NOCCO)cc21 [Selumetinib] (first compound max 1 µM, 7x7, partner max 3 µM)	0.184	0.214	0.623	1	0.258	0.581	0.634	0.982	0.828	0.178	0.322	0.426	0.992	0.432	1	0.21	0.21	0.282	0.383	1
COc1cccc(OCCCN)c1-c1cc(Nc2cnc(C#N)cn2)n[nH]1 [Prexasertib] + CN(C)CCCOc1ccc(-c2ccc3ncc4c(c3c2)n(C2CCOCC2)c(=O)n4C)cn1 [AZD0156] (first compound max 1 µM, 7x7, partner max 1 µM)	0.766	0.68	0.754	0.998	0.707	1	0.915	0.915	0.322	0.777	0.617	0.632	0.983	0.564	0.945	0.953	0.744	0.28	0.986	0.915
COc1nnc2ccc(N3CCC(c4ccc(OCCN5CCN(C)C(=O)[C@H]5C)cc4)CC3)nn12 [AZD5153] + CC1(C)CCC(CN2CCN(c3ccc(C(=O)NS(=O)(=O)c4ccc(NCC5CCOCC5)c([N+](=O)[O-])c4)c(Oc4cnc5[nH]ccc5c4)c3)CC2)=C(c2ccc(Cl)cc2)C1 [Venetoclax] (first compound max 1 µM, 7x7, partner max 1 µM)	0.5	0.498	0.878	1	0.518	0.66	0.369	0.952	0.384	0.656	0.335	0.557	0.781	0.445	0.847	0.61	0.53	0.359	0.831	0.514
Cn1cnc2c(F)c(Nc3ccc(Br)cc3Cl)c(C(=O)NOCCO)cc21 [Selumetinib] + C=CCn1c(=O)c2cnc(Nc3ccc(N4CCN(C)CC4)cc3)nc2n1-c1cccc(C(C)(C)O)n1 [AZD1775] (first compound max 10 µM, partner max 1 µM)	0.468	0.334	0.767	1	0.715	0.55	0.218	0.944	0.361	0.329	0.3	0.487	0.851	0.456	1	0.34	0.489	0.321	0.628	0.929
Cc1c2c(nn1C)CSCc1cc(n(C)n1)CSc1cc(c3ccccc3c1)OCCCc1c(C(=O)O)n(C)c3c-2c(Cl)ccc13 [AZD5991] + C[C@@H]1COCCN1C2=NC(=NC(=C2)C3(CC3)[S@](=N)(=O)C)C4=C5C=CNC5=NC=C4 [AZD6738] (first compound max 1 µM, 7x7, partner max 10 µM)	0.686	0.53	0.706	1	0.659	0.93	0.935	0.967	0.854	0.46	0.561	0.784	1	0.479	0.873	0.985	0.545	0.465	0.978	1
NC1(C(=O)N[C@@H](CCO)c2ccc(Cl)cc2)CCN(c2ncnc3[nH]ccc23)CC1 [Capivasertib] + C[C@@H]1COCCN1C2=NC(=NC(=C2)C3(CC3)[S@](=N)(=O)C)C4=C5C=CNC5=NC=C4 [AZD6738] (first compound max 10 µM, 7x7, partner max 10 µM)	0.729	0.786	0.542	1	0.511	0.872	0.442	0.849	0.712	0.648	0.601	0.652	0.928	0.575	0.618	0.947	0.627	0.526	0.799	0.913
Cn1cnc2c(F)c(Nc3ccc(Br)cc3Cl)c(C(=O)NOCCO)cc21 [Selumetinib] + CC(C)n1c(=O)n(C)c2cnc3cc(F)c(-c4ccc(OCCCN5CCCCC5)nc4)cc3c21 [AZD1390] (first compound max 10 µM, 7x7, partner max 0.3 µM)	0.129	0.132	0.535	0.762	0.117	0.44	0.204	0.836	0.401	0.131	0.176	0.409	0.347	0.418	0.976	0.131	0.119	0.235	0.0259	0.26
COc1cccc(OCCCN)c1-c1cc(Nc2cnc(C#N)cn2)n[nH]1 [Prexasertib] + C[C@@H]1COCCN1C2=NC(=NC(=C2)C3(CC3)[S@](=N)(=O)C)C4=C5C=CNC5=NC=C4 [AZD6738] (first compound max 1 µM, 7x7, partner max 10 µM)	0.782	0.645	0.682	0.996	0.698	0.991	0.797	0.91	0.519	0.793	0.663	0.648	0.985	0.555	0.948	0.973	0.71	0.26	0.983	0.965
COc1nnc2ccc(N3CCC(c4ccc(OCCN5CCN(C)C(=O)[C@H]5C)cc4)CC3)nn12 [AZD5153] + CCN(CCO)CCCOc1ccc2c(Nc3cc(CC(=O)Nc4cccc(F)c4)[nH]n3)ncnc2c1 [AZD2811] (first compound max 1 µM, 7x7, partner max 1 µM)	0.579	0.616	0.88	1	0.593	0.592	0.445	0.952	0.455	0.585	0.41	0.631	0.847	0.487	0.901	0.782	0.418	0.366	0.826	0.565
CCN(CCO)CCCOc1ccc2c(Nc3cc(CC(=O)Nc4cccc(F)c4)[nH]n3)ncnc2c1 [AZD2811] + O=C(c1cc(Cc2n[nH]c(=O)c3ccccc23)ccc1F)N1CCN(C(=O)C2CC2)CC1 [Olaparib] (first compound max 1 µM, 7x7, partner max 10 µM)	0.251	0.337	0.469	1	0.244	0.195	0.418	0.659	0.364	0.474	0.281	0.155	0.423	0.227	0.276	0.538	0.294	0.322	0.13	0.303
CCN(CCO)CCCOc1ccc2c(Nc3cc(CC(=O)Nc4cccc(F)c4)[nH]n3)ncnc2c1 [AZD2811] + C[C@@H]1COCCN1C2=NC(=NC(=C2)C3(CC3)[S@](=N)(=O)C)C4=C5C=CNC5=NC=C4 [AZD6738] (first compound max 1 µM, 7x7, partner max 10 µM)	0.696	0.567	0.644	1	0.487	0.903	0.619	0.815	0.537	0.54	0.437	0.436	0.936	0.545	0.615	0.908	0.462	0.355	0.649	0.841
